The values below come from patent publication US11352551B2, “Proppant coatings containing antimicrobial agents” (Agienic, Inc., priority 2012, dated 2022).

The conditions of data set [1]: room temperature; cited from earlier work.
In data set [2] the test system is Desulfovibrio vulgaris (ATCC 29579). Briefly: Activity against sulfate reducing bacteria (3-tube most probable number method). Format: cell-based. The note with it: 10 ppm (copper or gluteraldehyde); one hour; start 2×10^7 mpn/ml; SRB2 media.

Each structure is given as a SMILES string.

As for `[Cu][Br]` [CuBr, Copper(I) bromide], the Water solubility in data set [1] was 0.011 mg/mL.
As to `[Cl][Cu][Cl]` [CuCl2, copper (II) chloride], the “log10 reduction of D. vulgaris” value in data set [2] is reported as “less than 3 log10”.
`[Cl-].[Cl-].[Zn+2]` [ZnCl2, zinc chloride]: the Water solubility in data set [1] is 4300 mg/mL.
Turning to `O=CCCCC=O` [gluteraldehyde], in data set [2], the “log10 reduction of D. vulgaris” value is “greater than 4.23 log10”.
